Reference: patent US20020148008A1, “Gene which regulates the dormancy of wheat seed” (priority 2000, published 2002)

Experiments:
Assay in all cases: Abscisic acid-sensitivity of seed embryo (seeds cut in halves, sprouting and sprout stretching)
Type in all cases: in vivo
[1] = system: Minaminokomugi wheat seeds (the dormancy has been disrupted)
Procedure: (§1) Next, seeds obtained from 3 varieties Minaminokomugi, Sanin 1 and Tozan 18) and seeds in which dormancy has been disrupted (Minaminokomugi, Sanin 1) were soaked individually in 5% (W/V) Benlate T(DuPont, USA) for 10 minutes, then sterilized by washing with distilled water. The grains of these wheat seeds were cut in halves to be laid in pet dish. A section where 8 mL of abscisic acid (ABA) solution was added and a section where 8 mL of distilled water was added were produced for each seed, followed by culturing at 22° C. for 6 days to determine the sprouting rate and the degree of sprout stretching.

[2] = system: Sanin 1 wheat seeds (the dormancy has been disrupted)
Procedure: as §1

[3] = system: Minaminokomugi wheat seeds (strong dormancy)
Procedure: as §1

[4] = system: Sanin 1 wheat seeds (weak dormancy)
Procedure: as §1

[5] = system: Tozan 18 wheat seeds (weak dormancy)
Procedure: as §1

With `CC1=CC(=O)CC(C)(C)[C@@]1(O)/C=C/C(C)=C\C(=O)O` [ABA, abscisic acid] the “Sprouting Rate (%)” value ([1]; Minaminokomugi (dormancy disrupted), seeds cut in halves, + 10 μM ABA, 22° C., 6 days) was 70%, the abscisic acid-sensitivity ([1]; seeds of Minaminokomugi in which dormancy has been disrupted) was “weak abscisic acid-sensitivity or insensitivity” and the “Sprouting Rate (%)” value ([2]; Sanin 1 (dormancy disrupted), seeds cut in halves, + 10 μM ABA, 22° C., 6 days) was 100%. The abscisic acid-sensitivity ([2]; seeds of Sanin 1 in which dormancy has been disrupted) was “weak abscisic acid-sensitivity or insensitivity”, the “Sprouting Rate (%)” value ([3]; Minaminokomugi, seeds cut in halves, + 10 μM ABA, 22° C., 6 days) was 0% and the abscisic acid-sensitivity ([3]; seed of Minaminokomugi with strong dormancy) was “strong abscisic acid-sensitivity”. For the same molecule, the “Sprouting Rate (%)” value ([4]; Sanin 1, seeds cut in halves, + 10 μM ABA, 22° C., 6 days) was 100%, the abscisic acid-sensitivity ([4]; seeds of Sanin 1 with weak dormancy) was “weak abscisic acid-sensitivity or insensitivity” and the “Sprouting Rate (%)” value ([5]; Tozan 18, seeds cut in halves, + 10 μM ABA, 22° C., 6 days) was 100%. For the same molecule, the abscisic acid-sensitivity ([5]; seeds of Tozan 18 with weak dormancy) was “weak abscisic acid-sensitivity or insensitivity”.
